One data set has as its target T1, Pim1 kinase (Homo sapiens, UniProt P11309).
T1 construct: purchased Promega Corporation, Madison, WI
Put plainly: In vitro Pim1 kinase inhibition assay (ADP-Glo). Format: biochemical. As to conditions: n = 3. Here is the method:
ADP-Glo^TM kinase assay kit was used to evaluate Pim1 kinase inhibition purchased from Promega Corporation, Madison, WI. At each of the kit low-volume well, the tested compounds were dissolved in DMSO at each of the tested concentration range and 1 µL was withdrawn and mixed with 2 µL Pim1 kinase and 2 µL of substrate/ATP mix then incubated at room temperature for 60 min. 5 µL of ADP-Glo reagent was added and incubated for another 40 min at room temperature. Finally 10 µL of kinase detection reagents was added and incubated for 30 min and the luminescence was recorded. Pim1 kinase buffer was prepared by mixing 40 mM Tris at pH 7.5, 20 mM MgCl2, 0.1 mg/mL BSA and 50 µM DTT.
(In general: In ADP-Glo the light output rises with the ADP produced.)

Data set [1] relates to Breast MCF10A normal cell line. Kind of data set: Normal cell line cytotoxicity using MCF10a (MTT). Format: cell-based, human. As to conditions: 48 h; for IC50: Homo sapiens, MCF-10A; for Selectivity Index: MCF10A normal versus T47D cancer cells. Here is the method:
In vitro toxicology assay kit (MTT based) stock no. TOX-1 7H258 was purchased from SIGMA (St. Louis, MO). About 3 ml of the medium with the normal cell lines in log phase were added in multiwall plate without phenol red and serum. A volume of reconstituted MTT (#M-5655) equivalent to 10% of the culture medium volume was added then incubated for 2 h. The resulted fomazan crystals were dissolved with occasional shaking by equivalent volume of MTT solubilising solution (#M-8910). The final solution absorbance was measured spectrophotometry at wavelength 570 nm. Blank experiment was performed using medium only without cells.

The nature of data set [2]: Calculation of the lethal dose 50 (LD50), fixed-dose approach. As to conditions: male, Swiss albino, mouse, in vivo, ip, mice, single dose. Here is the method: The LD50 of compounds 3b and 8b were determined using a fixed-dose approach; 12 male Swiss albino mice were divided into four groups (three mice per group) to calculate the LD50. […]. By giving these concentrations once to the animals and monitoring the signs of poisoning and deaths within 24 h, the lethal dose was identified. The animals were monitored continuously for the first two hours and then every four hours after that. After 24 h, all of animal deaths and survival appeared. […]. […] The dose used in the experiment was 1/10 from the LD50.

The next data set deals with Ehrlich solid carcinoma. Kind of data set: In vivo cytotoxicity study, Ehrlich solid carcinoma model. The settings on record: i.p. once weekly for 3 weeks; for Histopathological examination of Ehrlich solid tumour (H&E): mice; for TNF-α level (ELISA) / malondialdehyde (MDA) level (ELISA): serum, Ehrlich solid tumour mice. Further details: species or system male Swiss albino mice. The procedure:
The National Cancer Institute (Cairo, Egypt) provided the 48 male Swiss albino mice utilised in this study, which ranged in weight from 25 to 30 g. Prior to the experiment, mice were given a week to settle into their new environment. A constant 23 °C temperature, 60% humidity, and a 12/12 light/dark cycle were maintained in stainless steel cages. Each cage housed five mice with a plenty of nourishing food and refreshing water were served. This in vivo study was approved from the ethical committee of the Azhar University, Faculty of Medicine, Egypt.
A female mouse with an 8-day-old ascetic tumour was obtained from the National Cancer Institute on the day of induction, and Ehrlich ascites carcinoma (EAC) cells were isolated from the ascetic fluid of the animal (day 0). Then, regular saline was used to dilute the ascetic fluid (1:10). Each mouse received a subcutaneous injection of 0.2 ml of ascetic fluid containing 2.5 × 10^6 EAC cells in the right thigh of the hind limb to induce Ehrlich solid-phase cancer.
On day 11 following ESC inoculation, tumour formation was observed as a solid mass expanding in the right thigh of each animal. The mice were then randomly divided into four groups (n = 6) • Group (1) acted as the […] control group and mice received an i.p. DMSO (2 mg/kg/once weekly) for 3 weeks. • Group (2) (Doxorubicin Group) mice received an i.p. dose of doxorubicin (2 mg/kg/once weekly) for 3 weeks. • Group (3) mice were given an i.p. dose of 8b compound (1 mg/kg/once weekly) for 3 weeks, • Group (4) mice were given an i.p. dose of 3b compound (1.4 mg/kg/once weekly) for 3 weeks.
Two days after the last dose of therapy, blood was drawn from the mice’s orbital canthus, and serum was separated and stored at −80 °C for upcoming biochemical investigations. Following the cervical dislocation method of euthanasia, tumour samples from each mouse were collected and preserved in neutral buffered formalin at a 10% concentration for immunohistochemistry and histopathology studies. Histological preparations were performed according to the reported method. Slices of Ehrlich tumour were cut to a thickness of 3–4 mm before being fixed in 10% neutral buffered formalin (10% NBF), dehydrated through a series of ethanol solutions, cleaned in xylene, and finally embedded in paraffin. To examine the overall tissue architecture, sections ([…]) thick were cut from paraffin blocks using a microtome and stained with haematoxylin and eosin. We used a Leica microscope (CH9435 Hee56rbrugg) to look at H&E-stained tissue sections (Leica Microsystems, Switzerland).
The avidin–biotin–peroxidase complex (ABC) method was used to do immunohistochemistry on paraffin sections that were put on positively charged slides. Rabbit Anti-VEGF Receptor 2 Polyclonal Antibody (Elabscience Cat# E-AB-63481, Dil.: 1:100) and Rabbit Monoclonal anti-caspase-3 antibody, active (cleaved) form (Sigma Aldrich Catalog # AB3623)[41], were utilised during this IHC assessment. Each group’s sections were treated with the previously specified antibodies, after which the ABC technique reagents (Vectastain ABC-HRP kit, Vector labs) were applied. To locate the antigen–antibody combination, marker expression was stained with diaminobenzidine (DAB, manufactured by Sigma) and labelled with peroxidase. In order to conduct negative controls, non-immune serum was substituted for the primary or secondary antibodies. IHC-stained sections were assessed using a Leica (CH9435 Hee56sbrugg) microscope (Leica Microsystems, Switzerland).
Using one-way analysis of variance (ANOVA) followed by Tukey’s post-hoc test, the difference between experimental groups was analysed. All data are presented as mean ± standard deviation (SD). All comparisons were judged statistically significant when the p values ≤ 0.05. ImageJ (NIH Image J system, Bethesda, MD) was used for the analysis of immunohistochemistry photos.
(In an ELISA, binding on a coated surface is turned into a signal by an enzyme label.)

The next data set deals with Pim2 kinase (Homo sapiens, UniProt Q9P1W9). Kind of data set: In vitro Pim2 kinase inhibition assay (ADP-Glo). Format: biochemical. As to conditions: n = 3.
Sequence of Pim2 kinase (Q9P1W9 whole entry): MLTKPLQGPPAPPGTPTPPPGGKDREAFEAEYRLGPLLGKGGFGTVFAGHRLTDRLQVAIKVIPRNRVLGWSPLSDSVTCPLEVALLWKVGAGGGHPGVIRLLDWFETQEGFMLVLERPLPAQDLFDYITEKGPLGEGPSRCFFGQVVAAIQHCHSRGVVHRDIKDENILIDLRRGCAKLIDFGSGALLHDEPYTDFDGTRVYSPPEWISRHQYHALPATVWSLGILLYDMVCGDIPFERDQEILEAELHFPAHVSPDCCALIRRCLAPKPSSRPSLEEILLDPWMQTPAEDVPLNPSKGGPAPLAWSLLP
[3] abbreviates: Ehrlich solid tumour tissue, 8b 1 mg/kg, 3b 1.4 mg/kg, doxorubicin 2 mg/kg.
The mark [4] stands for this setting: 8b 1 mg/kg, 3b 1.4 mg/kg, doxorubicin 2 mg/kg.

Entries after “also recorded” stand apart in the source; their conditions may differ.

A word on the IC50: it is the midpoint of a concentration-inhibition curve. A low value points to greater potency. The LD50 is the dose at which mortality reaches 50%.

T1 sequence (P11309 whole entry): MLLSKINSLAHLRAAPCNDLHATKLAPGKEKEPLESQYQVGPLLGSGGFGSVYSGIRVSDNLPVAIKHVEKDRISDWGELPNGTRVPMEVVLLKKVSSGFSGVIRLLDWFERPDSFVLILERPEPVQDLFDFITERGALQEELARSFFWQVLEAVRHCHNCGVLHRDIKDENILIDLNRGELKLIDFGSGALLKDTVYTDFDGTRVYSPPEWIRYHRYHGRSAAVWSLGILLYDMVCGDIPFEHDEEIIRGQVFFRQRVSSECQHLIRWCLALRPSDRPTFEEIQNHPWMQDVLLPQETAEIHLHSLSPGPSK

In the case of `Fc1ccc(-c2csc(Nc3cccc(Nc4nc(-c5ccc(F)cc5)cs4)c3)n2)cc1` [6b, N^1,N^3-bis(4–(4-fluorophenyl)thiazol-2-yl)benzene-1,3-diamine], the half-maximal inhibitory concentration (IC50) against Pim1 kinase stood at 2.95 µM.

For `CC(=O)c1sc(Nc2cccc(Nc3nc(C)c(C(C)=O)s3)c2)nc1C` [3b, 1,1’-(2,2’-(1,3-Phenylenebis(azanediyl))bis(4-methylthiazole-5,2-diyl))diethanone], in data set [1], 105 µM corresponded to half-maximal inhibition (IC50) and the “Selectivity Index” value amounted to 18.25. The 50% lethal dose (LD50) at 24 h in data set [2] was 14 mg/kg. The compound also showed an IC50 at Pim1 kinase of 0.32 µM. The “VEGF expression by immunohistochemistry” value with Ehrlich solid carcinoma (setting [3]) is “moderate to low expression of VEGF; also recorded: moderate VEGF positivity; also recorded: down-regulation of VEGF”. In the data set on Ehrlich solid carcinoma (setting [4]), the “Histopathological examination of Ehrlich solid tumour (H&E)” value is “substantial number of aggregated neoplastic cells with their typical structure were surrounded by small patches of necrotic muscle tissue; also recorded: aggregates of neoplastic cells with their typical structure that surrounded by small patches of necrotic muscle tissue”. In addition, in the data set with Ehrlich solid carcinoma, the “TNF-α level (ELISA)” value is “no statistical difference was detected between compounds 8b and 3b; also recorded: down-regulation of VEGF and TNF α”; the “malondialdehyde (MDA) level (ELISA)” value is “did not significantly vary from the untreated control group”. Besides, at Pim2 kinase, the IC50 turned out to be 6.05 µM.

At Pim1 kinase, `c1ccc(-c2csc(Nc3cccc(Nc4nc(-c5ccccc5)cs4)c3)n2)cc1` [6a, N^1,N^3-bis(4-phenylthiazol-2-yl)benzene-1,3-diamine] returned an IC50 of 2.02 µM.

Take `Fc1ccc(-c2cs/c(=N\c3ccccc3)n2-c2cccc(-n3c(-c4ccc(F)cc4)cs/c3=N\c3ccccc3)c2)cc1` [8b, N,N’-(3,3’-(1,3-phenylene)bis(4–(4-fluorophenyl)thiazole-3(3H)-yl-2(3H)-ylidene))dianiline]: in data set [1], half-maximal inhibition (IC50) was put at 53.3 µM and the “Selectivity Index” value came out at 5.44. The LD50 at 24 h in data set [2] was 10 mg/kg. On Pim1 kinase, half-maximal inhibition (IC50) required 0.24 µM. In the data set on Ehrlich solid carcinoma (setting [3]), the “VEGF expression by immunohistochemistry” value is recorded as “low expression of VEGF; also recorded: no appreciable VEGF immunoreactivity; also recorded: down-regulation of VEGF” and the “caspase-3 expression by immunohistochemistry” value was “highest significant increment in caspase-3 expression; also recorded: significant positive expression of caspase-3; also recorded: up-regulation of caspase-3”. The “Histopathological examination of Ehrlich solid tumour (H&E)” value in the data set with Ehrlich solid carcinoma (setting [4]) was “minimal infiltration of neoplastic cells and a significant reduction in their quantity; also recorded: inhibited the growth of Ehrlich solid tumours in mice”. For the same compound, in the data set with Ehrlich solid carcinoma, the “TNF-α level (ELISA)” value was “no statistical significant difference between DOX and 8b; also recorded: down-regulation of VEGF and TNF α”; the “malondialdehyde (MDA) level (ELISA)” value is “elevation of malondialdehyde levels”. Besides, it took 10.5 µM to reach half-maximal inhibition at Pim2 kinase (IC50).

Source of the values: article PMC9897788, “Design, synthesis and cytotoxic evaluation of novel bis-thiazole derivatives as preferential Pim1 kinase inhibitors with in vivo and in silico study” (Journal of Enzyme Inhibition and Medicinal Chemistry, 2023).
